Measured values from patent US20230321017A1, “ACIDIC CANNABINOIDS AND USES THEREOF FOR ENHANCING FEMALE SEXUAL FUNCTION OR TREATING FEMALE SEXUAL DISORDERS” (Vella Bioscience, Inc., priority 2022, published 2023).
Entries after “also recorded” stand apart in the source; their conditions may differ.

Assays:
[1] = system: rat distal vaginal smooth muscle tissue; test: In vitro isometric tension, isolated organ bath: relaxation of EFS-induced contractions of distal vagina strips; conditions: for relaxation of EFS-induced contractions of distal vagina strips compared to the vehicle control: 10 min incubation, two-way ANOVA; for pharmacological relaxant effect on rat distal vaginal smooth muscle tissue (dose dependence): figure legend, 1, 10 and 100 µg/mL
Source text: (§1) The following in vitro methodology was utilized to examine the concentration-dependent response of rat vaginal tissue, both proximal and distal, to CBDA and CBD following contraction by electrical field stimulation (similar to efferent neurostimulation in vivo).
(§2) Intact female Sprague-Dawley rats were anesthetized and vagina harvested. A maximum of eight vaginal strips (4 proximal and 4 distal) were obtained from each rat in circular direction and mounted in organ chambers filled with an oxygenated physiological salt solution.
(§3) Strips were excised from the tissue samples and connected to force transducers for isometric tension recording. Organ baths were filled with Krebs buffer maintained at 37° C. and bubbled with 95% O2 and 5% CO2, pH 7.4.
(§4) After the equilibration period, the strips were primed first by the addition to the organ bath of KCI (100 mM, 10 min) and then after a washing step, by stimulation to EFS (electrical parameters: 20 Hz, 3 ms, 10 s, 300 mA). After this priming period, the strips were washed and a baseline frequency response curve (FRC) was obtained (3 ms, 10 s, 300 mA, frequency at 1, 2, 4, 8, 16, 32, and 48 Hz, every 2 minutes). Then, 6 strips (3 proximal and 3 distal) were incubated with vehicle for 10 minutes before applying a second FRC. The remaining 2 strips (one proximal and one distal) served as a time-controls. After a washing step, a third FRC was applied after the incubation of the test compound at 1 µg/mL for a period of 10 min. This was repeated with the concentration of 10 µg/mL, and 100 µg/mL.
(§5) The experiments were performed following the general procedures described in Examples 1 and 2. The data are mean ± SEM of N experiments using vaginal strips from N different rats. p = ns, * p < 0.05, ** p < 0.01, *** p < 0.001, **** p < 0.0001, two-way ANOVA.
(§6) The experiments were performed following the general procedures described in Examples 1 and 2. The data are mean ± SEM of N experiments using vaginal strips from N different rats; p = ns, * p < 0.05, ** p < 0.01, *** p < 0.001, **** p < 0.0001, two-way ANOVA.
(§7) The comparison plots of the pharmacological relaxant effects of CBD and CBDA on rat vaginal smooth muscle tissue are shown in FIGS. 3, 4, and 5. Also, shown are the results of the evaluation of the differences in effects exerted by CBD and CBDA for statistical significance. The data are mean ± SEM of N experiments using vaginal strips from N different rats; p = ns, * p < 0.05, ** p < 0.01, *** p < 0.001, **** p < 0.0001, two-way ANOVA.

[2] = system: cyclooxygenase isoforms; conditions: background statement, selectivity controversial; cited from earlier work
[3] = system: vaginal smooth muscle; conditions: earlier study WO2021091908A1; cited from earlier work
[4] = system: rat proximal vaginal smooth muscle tissue; test: In vitro isometric tension, isolated organ bath: relaxation of EFS-induced contractions of proximal vagina strips; conditions: for relaxation of EFS-induced contractions of proximal vagina strips compared to the vehicle control: 10 min incubation, two-way ANOVA; for pharmacological relaxant effect on rat proximal vaginal smooth muscle tissue (dose dependence): figure legend, 1, 10 and 100 µg/mL
Source text: as §1, §2, §3, §4, §5, §6, §7

[5] = system: rat vaginal smooth muscle; test: Relaxation of precontracted rat vaginal smooth muscle (summary statement); conditions: dose-dependent manner; tissue region not specified
Source text: as §1, §2, §3
as §4, with “After a washing step, a third FRC was applied after the incubation of the test compound at 1 µg/mL for a period of 10 min. This was repeated with the concentration of 10 µg/mL, and 100 µg/mL.” left out

[6] = pKa estimate by comparison to olivetolic acid; assay type: physicochemical; conditions: estimated by comparison to olivetolic acid; not reported
[7] = background statement; cited from earlier work

Compound | relaxation of EFS-induced contractions of distal vagina strips compared to the vehicle control ([1]; 1 µg/mL) | relaxation of EFS-induced contractions of distal vagina strips compared to the vehicle control ([1]; 10 µg/mL) | relaxation of EFS-induced contractions of distal vagina strips compared to the vehicle control ([1]; 100 µg/mL) | pharmacological relaxant effect on rat distal vaginal smooth muscle tissue (dose dependence) [1] | activity against cyclooxygenase (COX-1/COX-2) [2] | relaxation of vaginal smooth muscle [3] | relaxation of EFS-induced contractions of proximal vagina strips compared to the vehicle control ([4]; 10 µg/mL) | relaxation of EFS-induced contractions of proximal vagina strips compared to the vehicle control ([4]; 100 µg/mL) | pharmacological relaxant effect on rat proximal vaginal smooth muscle tissue (dose dependence) [4] | pharmacological relaxant effect of CBDA compared with CBD, distal vaginal smooth muscle ([1]; 1 µg/mL, FIG. 3B) | pharmacological relaxant effect of CBDA compared with CBD, distal vaginal smooth muscle ([1]; 10 µg/mL, FIG. 4B) | pharmacological relaxant effect of CBDA compared with CBD, distal vaginal smooth muscle ([1]; 100 µg/mL, FIG. 5B) | effectiveness at relaxing a precontracted rat vaginal smooth muscle, relative to CBD [5] | pKa [6] | permeability relative to CBD [7] | pharmacological relaxant effect of CBDA compared with CBD, proximal vaginal smooth muscle ([4]; 1 µg/mL, FIG. 3A) | pharmacological relaxant effect of CBDA compared with CBD, proximal vaginal smooth muscle ([4]; 10 µg/mL, FIG. 4A) | pharmacological relaxant effect of CBDA compared with CBD, proximal vaginal smooth muscle ([4]; 100 µg/mL, FIG. 5A)
C=C(C)[C@@H]1CCC(C)=C[C@H]1c1c(O)cc(CCCCC)cc1O [CBD, (-)-trans-cannabidiol, reference compound] | statistically-significant relaxation; also recorded: statistically significant relaxation | statistically-significant relaxation; also recorded: statistically significant relaxation | statistically-significant relaxation; also recorded: statistically significant relaxation | statistically significant, dose-dependent pharmacological relaxant effect | much weaker or no activity | statistically-significant relaxation | statistically-significant relaxation | statistically-significant relaxation | statistically significant, dose-dependent pharmacological relaxant effect |  |  |  |  |  |  |  |  | 
C=C(C)[C@@H]1CCC(C)=C[C@H]1c1c(O)cc(CCCCC)c(C(=O)O)c1O [CBDA, (1′R,2′R)-2,6-dihydroxy-5′-methyl-4-pentyl-2′-(prop-1-en-2-yl)-1′,2′,3′,4′-tetrahydro[1,1′-biphenyl]-3-carboxylic acid] |  | statistically-significant relaxation | statistically-significant relaxation | statistically significant, dose-dependent pharmacological relaxant effect | inhibitor of cyclooxygenase isoforms |  |  |  | statistically significant, dose-dependent pharmacological relaxant effect | no statistically significant difference | stronger | stronger | significantly more effective than CBD | ~3.4 | substantially higher | stronger | stronger | stronger
